From patent publication US4604380A, “C-23-substituted mycaminosyltylonolide compounds, pharmaceutical compositions and methods of use” (Eli Lilly and Company, priority 1985, dated 1986)
In brackets after ≈: the same amount, converted by molar mass. Where two headings read alike, the source gives them in different places.

Columns and labels:
Streptococcus pyogenes = assay: ED50 vs Streptococcus pyogenes experimental infection in mice (Table VI); assay type: in vivo; conditions: two doses, several values = results from more than one test
Procedure: (§1) Certain formula 1a compounds have also shown in vivo antimicrobial activity against experimental bacterial infections. When two doses of test compound were administered to mice in experimental infections, the activity observed was measured as an ED50 value [effective dose in mg/kg to protect 50% of the test animals: see Warren Wick, et al., J. Bacteriol. 81, 233-235 (1961)].

Staphylococcus aureus = assay: ED50 vs. Staphylococcus aureus experimental infection in mice (Table V); assay type: in vivo; conditions: sc, subcutaneous, two doses, dose protecting 50% of animals, read-out: ED50 Subcutaneous
Procedure: as §1

[1] = test system: Streptococcus pyogenes C203; assay: MIC, standard agar-dilution assay (Table III); assay type: cell-based
Procedure: (§2) The MIC's s in Table III were determined by standard agar-dilution assays. The MIC's in Table IV were obtained using a conventional broth-dilution microtiter test.

[2] = test system: Staphylococcus aureus X400; assay: MIC, standard agar-dilution assay (Table III); assay type: cell-based
Procedure: as §2

[3] = test system: Staphylococcus aureus X1.1; assay: MIC, standard agar-dilution assay (Table III); assay type: cell-based
Procedure: as §2

[4] = test system: Staphylococcus aureus V41; assay: MIC, standard agar-dilution assay (Table III); assay type: cell-based; conditions: Staphylococcus aureus V41, penicillin-resistant strain
Procedure: as §2

[5] = test system: Staphylococcus aureus S13E; assay: MIC, standard agar-dilution assay (Table III); assay type: cell-based
Procedure: as §2

[6] = test system: Streptococcus Group D X66; assay: MIC, standard agar-dilution assay (Table III); assay type: cell-based
Procedure: as §2

[7] = test system: Haemophilus influenzae 76; assay: MIC, standard agar-dilution assay (Table III); assay type: cell-based; conditions: agar dilution; Haemophilus influenzae 76, ampicillin-resistant strain; read-out: MIC
Procedure: as §2

[8] = test system: Staphylococcus epidermidis 222; assay: MIC, standard agar-dilution assay (Table III); assay type: cell-based
Procedure: as §2

[9] = test system: Haemophilus influenzae C.L.; assay: MIC, standard agar-dilution assay (Table III); assay type: cell-based
Procedure: as §2

[10] = test system: Staphylococcus epidermidis EPI1; assay: MIC, standard agar-dilution assay (Table III); assay type: cell-based
Procedure: as §2

[11] = test system: Streptococcus Group D 2041; assay: MIC, standard agar-dilution assay (Table III); assay type: cell-based; conditions: GROUPD2041
Procedure: as §2

[12] = test system: Streptococcus pneumoniae Park I; assay: microbe, parasite or virus in culture; assay type: cell-based
Procedure: as §2

[13] = test system: Streptococcous pneumoniae; assay: ED50 vs. Streptococcous pneumoniae experimental infection in mice (Table VII); assay type: in vivo; conditions: Mus musculus, sc, subcutaneous, two doses, read-out: ED50 Subcutaneous
Procedure: as §1

[14] = test system: Mycoplasma gallisepticum 36H; assay: MIC, conventional broth-dilution microtiter test (Table IV); assay type: cell-based; conditions: Mycoplasmoides gallisepticum; broth-dilution microtiter; Mycoplasma gallisepticum 36H; read-out: MIC
Procedure: as §2

[15] = test system: Pasteurella multocida 68C; assay: as above; assay type: cell-based; conditions: broth-dilution microtiter; Pasteurella multocida 68C; read-out: MIC
Procedure: as §2

[16] = test system: Mycoplasma hyopneumoniae S5972; assay: as above; assay type: cell-based; conditions: Mesomycoplasma hyopneumoniae; broth-dilution microtiter; Mycoplasma hyopneumoniae S5972; read-out: MIC
Procedure: as §2

[17] = test system: Pasteurella multocida 22A; assay: as above; assay type: cell-based; conditions: broth-dilution microtiter; Pasteurella multocida 22A; read-out: MIC
Procedure: as §2

[18] = test system: Mycoplasma gallisepticum 15E; assay: as above; assay type: cell-based; conditions: Mycoplasmoides gallisepticum; broth-dilution microtiter; Mycoplasma gallisepticum 15E; read-out: MIC
Procedure: as §2

[19] = test system: Staphylococcus aureus 19C; assay: as above; assay type: cell-based; conditions: broth-dilution microtiter; Staphylococcus aureus 19C; read-out: MIC
Procedure: as §2

Mycoplasma hyorhinis 29E = assay: as above; assay type: cell-based; conditions: Mycoplasma, 29E
Procedure: as §2

Streptococcus sp. 19F = assay: as above; assay type: cell-based
Procedure: as §2

[20] = test system: Pasteurella hemolytica 22C; assay: as above; assay type: cell-based; conditions: broth-dilution microtiter; Pasteurella hemolytica 22C; read-out: MIC
Procedure: as §2

[21] = test system: Pasteurella multocida 17E; assay: as above; assay type: cell-based; conditions: broth-dilution microtiter; Pasteurella multocida 17E, bovine isolate; read-out: MIC
Procedure: as §2

[22] = test system: Pasteurella multocida 40G; assay: as above; assay type: cell-based; conditions: broth-dilution microtiter; Pasteurella multocida 40G; read-out: MIC
Procedure: as §2

Mycoplasma synoviae 40A = assay: as above; assay type: cell-based; conditions: Mycoplasmopsis synoviae, 40A
Procedure: as §2

[23] = test system: Bordetella bronchisepticum 95B; assay: as above; assay type: cell-based
Procedure: as §2

[24] = test system: Pasteurella hemolytica 23C; assay: as above; assay type: cell-based; conditions: broth-dilution microtiter; Pasteurella hemolytica 23C; read-out: MIC
Procedure: as §2

[25] = test system: Pasteurella hemolytica 41D; assay: as above; assay type: cell-based; conditions: broth-dilution microtiter; Pasteurella hemolytica 41D; read-out: MIC
Procedure: as §2

[26] = test system: Mycoplasma gallisepticum 29C; assay: as above; assay type: cell-based; conditions: Mycoplasmoides gallisepticum; broth-dilution microtiter; Mycoplasma gallisepticum 29C; read-out: MIC
Procedure: as §2

[27] = test system: Pasteurella multocida 60A; assay: as above; assay type: cell-based; conditions: broth-dilution microtiter; Pasteurella multocida 60A, avian isolate; read-out: MIC
Procedure: as §2

[28] = sc, subcutaneous, read-out: ED50 Subcutaneous
[29] = agar dilution, Staphylococcus epidermidis 222, read-out: MIC
[30] = agar dilution, Streptococcus pyogenes C203, read-out: MIC
[31] = agar dilution, Streptococcus Group D X66, read-out: MIC
[32] = agar dilution, Haemophilus influenzae C.L., ampicillin-sensitive strain, read-out: MIC
[33] = agar dilution, Staphylococcus epidermidis EPI1, read-out: MIC
[34] = agar dilution, Streptococcus Group D 2041, read-out: MIC

## CCC1OC(=O)CC(O)C(C)C(OC2OC(C)C(O)C(N(C)C)C2O)C(CC=O)CC(C)C(=O)C=CC(C)=CC1CN1CCC2CCCCC2C1 (stereo not shown) [Compound 33, 23-deoxy-23-(octahydro-1H--isoquinolin-2-yl)-OMT]
Streptococcus pyogenes; [28]
  ED50: > 10 mg/kg
Staphylococcus aureus
  ED50: 7.56 mg/kg
[1]; Streptococcus pyogenes, C203
  MIC: 0.03 µg/mL (≈ 0.0417 µM)
[2]; Staphylococcus aureus, X400
  MIC: 0.25 µg/mL (≈ 0.348 µM)
[3]
  MIC: 0.5 µg/mL (≈ 0.695 µM)
[4]
  MIC: 0.5 µg/mL (≈ 0.695 µM)
[5]
  MIC: 0.5 µg/mL (≈ 0.695 µM)
[6]
  MIC: 0.5 µg/mL (≈ 0.695 µM)
[7]
  MIC: 0.25 µg/mL (≈ 0.348 µM)
[8]; [29]
  MIC: 0.125 µg/mL (≈ 0.174 µM)
[9]; Haemophilus influenzae
  MIC: 0.5 µg/mL (≈ 0.695 µM)
[10]; Staphylococcus epidermidis, EPI1
  MIC: 0.5 µg/mL (≈ 0.695 µM)
[11]
  MIC: 0.5 µg/mL (≈ 0.695 µM)
[12]; Streptococcus pneumoniae, read-out: MIC
  MIC: 0.06 µg/mL (≈ 0.0835 µM)
[13]
  ED50: 10 mg/kg

## CCC1OC(=O)CC(O)C(C)C(OC2OC(C)C(O)C(N(C)C)C2O)C(CC=O)CC(C)C(=O)C=CC(C)=CC1CN1C2CCCCC2C2CCCCC21 (stereo not shown) [Compound 25, 23-deoxy-23-(dodecahydro-9H--carbazol-9-yl)-OMT]
Streptococcus pyogenes; po, read-out: ED50 Oral
  ED50: 63 mg/kg
Streptococcus pyogenes; [28]
  ED50: 7.43 mg/kg
Streptococcus pyogenes; subcutaneous
  ED50 Subcutaneous: > 10 mg/kg × 2
Staphylococcus aureus
  ED50: 7.69 mg/kg
[1]; [30]
  MIC: 0.25 µg/mL (≈ 0.329 µM)
[2]; agar dilution, Staphylococcus aureus X400, methicillin-resistant strain, read-out: MIC
  MIC: 1 µg/mL (≈ 1.32 µM)
[3]
  MIC: 0.5 µg/mL (≈ 0.659 µM)
[4]
  MIC: 0.5 µg/mL (≈ 0.659 µM)
[5]
  MIC: 0.5 µg/mL (≈ 0.659 µM)
[6]; [31]
  MIC: 0.5 µg/mL (≈ 0.659 µM)
[7]
  MIC: 1 µg/mL (≈ 1.32 µM)
[8]; Staphylococcus epidermidis, 222
  MIC: 0.25 µg/mL (≈ 0.329 µM)
[9]; [32]
  MIC: 4 µg/mL (≈ 5.27 µM)
[10]; [33]
  MIC: 0.5 µg/mL (≈ 0.659 µM)
[11]; [34]
  MIC: 0.5 µg/mL (≈ 0.659 µM)
[12]; agar dilution, Streptococcus pneumoniae Park I, read-out: MIC
  MIC: 0.125 µg/mL (≈ 0.165 µM)
[13]
  ED50: > 10 mg/kg
[14]
  MIC: 50 µg/mL (≈ 65.9 µM)
[15]
  MIC: 1.56 µg/mL (≈ 2.06 µM)
[16]
  MIC: < 0.012 µg/mL
[17]
  MIC: 1.56 µg/mL (≈ 2.06 µM)
[18]
  MIC: 50 µg/mL (≈ 65.9 µM)
[19]
  MIC: 0.78 µg/mL (≈ 1.03 µM)
Mycoplasma hyorhinis 29E
  MIC: < 0.048 µg/mL
Streptococcus sp. 19F
  MIC: < 0.048 µg/mL
[20]
  MIC: 3.12 µg/mL (≈ 4.11 µM)
[21]
  MIC: 1.56 µg/mL (≈ 2.06 µM)
[22]
  MIC: 1.56 µg/mL (≈ 2.06 µM)
Mycoplasma synoviae 40A
  MIC: < 0.048 µg/mL
[23]
  MIC: 25 µg/mL (≈ 32.9 µM)
[24]
  MIC: 1.56 µg/mL (≈ 2.06 µM)
[25]
  MIC: 1.56 µg/mL (≈ 2.06 µM)
[26]
  MIC: 0.097 µg/mL (≈ 0.128 µM)
[27]
  MIC: 1.56 µg/mL (≈ 2.06 µM)

## CCC1OC(=O)CC(O)C(C)C(OC2OC(C)C(O)C(N(C)C)C2O)C(CC=O)CC(C)C(=O)C=CC(C)=CC1CN1CCc2ccccc2C1 (stereo not shown) [Compound 29, 23-deoxy-23-(3,4-dihydro-1H--isoquinolin-2-yl)-OMT]
Streptococcus pyogenes; [28]
  ED50: > 10 mg/kg
Staphylococcus aureus
  ED50: > 10 mg/kg
[1]; [30]
  MIC: 0.06 µg/mL (≈ 0.0842 µM)
[2]; Staphylococcus aureus, X400
  MIC: 0.25 µg/mL (≈ 0.351 µM)
[3]
  MIC: 0.25 µg/mL (≈ 0.351 µM)
[4]
  MIC: 0.25 µg/mL (≈ 0.351 µM)
[5]
  MIC: 0.25 µg/mL (≈ 0.351 µM)
[6]; [31]
  MIC: 0.125 µg/mL (≈ 0.175 µM)
[7]
  MIC: 1 µg/mL (≈ 1.4 µM)
[8]; [29]
  MIC: 0.125 µg/mL (≈ 0.175 µM)
[9]; [32]
  MIC: 1 µg/mL (≈ 1.4 µM)
[10]; [33]
  MIC: 0.125 µg/mL (≈ 0.175 µM)
[11]; [34]
  MIC: 0.25 µg/mL (≈ 0.351 µM)
[12]; Streptococcus pneumoniae
  MIC: 0.03 µg/mL (≈ 0.0421 µM)
[13]
  ED50: > 10 mg/kg
